Experiment [1] has as its target T1, vasopressin V1 receptor (rat liver plasma membranes) (Rattus norvegicus, UniProt P30560).
T1 construct: Rat liver plasma membranes expressing the vasopressin V1 receptor subtypes; from tissue; host or cells: rat liver plasma membranes
Nature of the experiment: Binding Assay to Rat Hepatic V1 Receptors. As for the experimental part:
Binding Assay to Rat Hepatic V1 Receptors
Rat liver plasma membranes expressing the vasopressin V1 receptor subtypes are isolated by sucrose density gradient according to the method described by Lesko et al., (1973). These membranes are quickly suspended in 50.0 mM Tris.HCl buffer, pH 7.4, containing 0.2% bovine serum albumin (BSA) and 0.1 mM phenylmethylsulfonylfluoride (PMSF) and kept frozen at -70° C. until used in subsequent binding experiments. For binding experiments, the following is added to the wells of a ninety-six well format microtiter plate: […] of […] buffer containing 10.0 mM MgCl2, 0.2% heat inactivated BSA and a mixture of protease inhibitors: leupeptin, 1.0 mg %; aprotinin, 1.0 mg %; 1,10-phenanthroline,2.0 mg %; trypsin inhibitor, 10.0 mg % and 0.1 mM PMSF, 20.0 ml of [phenylalanyl-3,4,5, -^3 H] vasopressin (S.A. 45.1 Ci/mmole) […], and the reaction initiated by the addition of 80 ml of tissue membranes containing 20 mg of tissue protein. The plates are kept undisturbed on the bench top at room temperature for 120 min. to reach equilibrium. Non-specific samples are assayed in the presence of 0.1 mM of the unlabeled […] phenylalanylvasopressin, added in 20.0 ml volume.
For test compounds, these are solubilized in 50% dimethylsulfoxide (DMSO) and added in 20.0 ml volume to a final incubation volume of […]. Upon completion of binding, the content of each well is filtered off, using a Brandel® cell Harvester (Gaithersburg, Md.). The radioactivity trapped on the filter disk by the ligand-receptor complex is assessed by liquid scintillation counting in a Packard LS Counter, with an efficiency of 65% for tritium.

For another experiment, the system named is vasopressin V2. The experiment can be described thus: Vasopressin V2 Antagonist Activity in Conscious Hydrated Rats. Type of experiment: in vivo, rat. The settings on record: oral 10 mg/kg, N=2, AVP challenge. As for the experimental part:
Vasopressin V2 Antagonist Activity in Conscious Hydrated Rats Conscious hydrated rats are treated with compounds under study from 0.1 to 100 mg/kg orally or vehicle. Two to four rats are used for each compound. One hour later, arginine vasopressin (AVP, antidiuretic Hormone, ADH) dissolved in peanut oil is administered at […] intraperitoneally. Two rats in each test would not receive arginine vasopressin but only the vehicle (peanut oil) to serve as water-loading control. Twenty minutes later each rat is given 30 mL/kg of deionized water orally by gavage and is placed individually in a metabolic cage equipped with a funnel and a graduated glass cylinder to collect urine for four hours. Urine volume is measure and osmolality analyzed by use of a Fiske One-Ten osmometer (Fiske Assoc., Norwood, Mass., USA). Urinary sodium, potassium, and chloride are analyzed by use of ion-specific electrodes in a Beckman E3 (Electrolye 3) Analyzer. In the following results, […] and decreased osmolality relative to AVP-control indicates activity.

Experiment [2] deals with T2, oxytocin receptor (rat uteri) (Rattus norvegicus, UniProt P70536).
T2 construct: The uteri are dissected out, cleaned of fat and connective tissues; from tissue; host or cells: uteri of diethylstilbestrol-treated female Sprague-Dawley rats
T2 sequence (P70536 1-388): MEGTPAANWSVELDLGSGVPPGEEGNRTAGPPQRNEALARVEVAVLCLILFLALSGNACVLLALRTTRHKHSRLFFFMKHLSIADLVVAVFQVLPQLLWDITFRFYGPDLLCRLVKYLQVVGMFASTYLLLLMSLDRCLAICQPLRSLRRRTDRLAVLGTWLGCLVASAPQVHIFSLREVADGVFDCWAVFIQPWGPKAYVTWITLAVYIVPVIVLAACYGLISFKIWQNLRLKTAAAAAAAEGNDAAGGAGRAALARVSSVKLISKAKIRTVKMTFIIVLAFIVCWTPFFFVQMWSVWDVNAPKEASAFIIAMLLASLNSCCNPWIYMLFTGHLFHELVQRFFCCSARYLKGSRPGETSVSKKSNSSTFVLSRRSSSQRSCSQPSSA
Nature of the experiment: Oxytocin Receptor Binding. More on the design: species or system rat (Sprague-Dawley). The settings on record: for IC50: [3H]oxytocin displacement. On the procedure: Oxytocin Receptor Binding
Female Sprague-Dawley rats weighing approximately 200-250 g are injected intramuscularly (i.m.) with 0.3 mg/kg of body weight of diethylstilbestrol (DES). The rats are sacrificed 18 hours later under pentobarbital anesthesia. The uteri are dissected out, cleaned of fat and connective tissues and rinsed in 50 ml of normal saline. The tissue pooled from six rats is homogenized in 50 ml of […] Tris. HCl, containing 0.5 mM dithiothreitol and 1.0 mM EDTA, adjusted to pH 7.4, using a polytron at setting 6 with three passes of 10 sec each. The homogenate is passed through two (2) layers of cheesecloth and the filtrate centrifuged at 1000×g for 10 minutes. The clear supernatant is removed and recentrifuged at 165,000×g for 30 minutes. The resulting pellet containing the oxytocin receptors is resuspended in 50.0 mM Tris.HCl containing 5.0 mM MgCl2 at pH 7.4, to give a protein concentration of 2.5 mg/ml of tissue suspension. This preparation is used in subsequent binding assays with [^3 H]oxytocin.
Binding of 3,5-[^3 H]Oxytocin ([^3 H]OT) to its receptors is done in microtiter plates using [^3 H]OT, at various concentrations, in an assay buffer of 50.0 mM Tris.HCI, pH 7.4 and containing 5.0 mM MgCl2, and a mixture of protease inhibitors: BSA, 0.1 mg; aprotinin, 1.0 mg; 1,10-phenanthroline, 2.0 mg; […], 10.0 mg; and PMSF, 0.3 mg per 100 ml of buffer solution. Non-specific binding is determined in the presence of 1.0 uM unlabeled OT. The binding reaction is terminated after 60 minutes, at 22° C., by rapid filtration through glass fiber filters using a Brandel® cell harvester (Biomedical Research and Development Laboratories, Inc., Gaithersburg, Md.). Competition experiments are conducted at equilibrium using 1.0 nM [^3 H]OT and varying the concentration of the displacing agents. The concentrations of agent displacing 50% of [^3 H]OT at its sites (IC50) are calculated by a computer assisted LUNDON-2 program (LUNDON SOFTWARE INC., Ohio, USA).

Experimental findings from patent publication US5849735A, “Tricyclic benzazepine vasopressin antagonists” (American Cyanamid Company, priority 1995, dated 1998) are described below.

T1 sequence (P30560 whole entry): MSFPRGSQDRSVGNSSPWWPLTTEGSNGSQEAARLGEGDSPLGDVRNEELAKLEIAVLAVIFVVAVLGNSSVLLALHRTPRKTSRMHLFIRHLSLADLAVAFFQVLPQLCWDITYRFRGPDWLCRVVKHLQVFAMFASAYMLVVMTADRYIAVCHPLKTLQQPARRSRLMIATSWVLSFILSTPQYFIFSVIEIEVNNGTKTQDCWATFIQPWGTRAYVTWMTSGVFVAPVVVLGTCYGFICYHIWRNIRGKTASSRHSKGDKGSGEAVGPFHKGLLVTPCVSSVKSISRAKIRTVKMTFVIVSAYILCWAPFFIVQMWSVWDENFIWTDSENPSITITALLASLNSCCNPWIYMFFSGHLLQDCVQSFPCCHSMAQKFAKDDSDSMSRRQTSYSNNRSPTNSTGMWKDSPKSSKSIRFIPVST

`Cc1ccc(F)cc1C(=O)Nc1ccc(C(=O)N2Cc3sccc3Cc3ccccc32)cn1` [Example 2, N-[5-[(9,10-Dihydro-4H-thieno[2,3-c][1]benzazepin-9-yl)carbonyl]-2-pyridinyl]-5-fluoro-2-methylbenzamide]: in experiment [1] (rat hepatic V1 receptors), the 50% inhibitory concentration (IC50) was determined as 59 nM. For the same compound, in the experiment on vasopressin V2, the Osmolality came out at 591 MOsm/kg and the “Urine Volume” value is recorded as 16.5 ml/4 hrs. In experiment [2], this compound yielded a 50% inhibitory concentration (IC50) of 1100 nM and an inhibition at 10 µM of 86%.

Take `Cc1ccc(F)cc1C(=O)Nc1ccc(C(=O)N2Cc3ccccc3Oc3ncccc32)cn1` [Example 4, N-[5-(Pyrido[2,3-b][1,4]benzoxazepin-5(6H)-ylcarbonyl)-2-pyridinyl]-5-fluoro-2-methylbenzamide]: the inhibition at 10 µM in experiment [1] (2 h, rat hepatic V1) worked out at 44%; in experiment [2], 20%. For the same compound, in the experiment with vasopressin V2, the Osmolality was 878 MOsm/kg. In addition, the “Urine Volume” value in the experiment with vasopressin V2 is given as 6.8 ml/4 hrs.

With `CCCCOc1ccc(C(=O)N2Cc3ccccc3Cc3ccccc32)cc1` [Example 24], in the experiment on vasopressin V2, the Osmolality stood at 1492 MOsm/kg and the “Urine Volume” value is recorded as 4.3 ml/4 hrs. Moreover, in experiment [2], the IC50 stood at 1800 nM and at 10 µM the inhibition was 97%.

On to `O=C(c1ccc(-c2ccccc2)cc1)N1Cc2ccccc2Oc2ccccc21` [Example 26, 10-([1,1'-Biphenyl]-4-ylcarbonyl)-10,11-dihydrodibenz[b,f][1,4]oxazepine], for which the inhibition at 1 µM in experiment [1] (2 h, rat hepatic V1, at 1 μM) turned out to be 46%. Besides, in the experiment on vasopressin V2, the Osmolality was determined as 1058 MOsm/kg and the “Urine Volume” value is reported as 4.5 ml/4 hrs. Further, in experiment [2], the IC50 turned out to be 2500 nM and the inhibition at 10 µM is 73%.

In the case of `O=C(c1ccc(-c2ccccc2)cc1)N1Cc2sccc2Cc2ccccc21` [Example 27, 9-([1,1'-Biphenyl]-4-ylcarbonyl)-9,10-dihydro-4H-thieno[2,3-c][1]benzazepine], in the experiment on vasopressin V2, the Osmolality worked out at 1317 MOsm/kg and the “Urine Volume” value worked out at 3.3 ml/4 hrs. This compound also came in with an inhibition at 1 µM in experiment [2] of 83%.

Consider `O=C(c1ccccc1)c1ccc(C(=O)N2Cc3ccccc3Oc3ccccc32)cc1` [Example 32, 10-(4-Benzoylbenzoyl)-10,11-dihydrodibenz[b,f][1,4]oxazepine], for which, in experiment [1] (2 h, rat hepatic V1), the inhibition at 10 µM came out at 53%. In the experiment on vasopressin V2, the Osmolality is 726 MOsm/kg and the “Urine Volume” value came to 9.3 ml/4 hrs. For the same compound, in experiment [2], the IC50 is 1800 nM and at 10 µM the inhibition was 88%.

In experiment [1] (2 h, rat hepatic V1), `Cc1ccc(F)cc1C(=O)Nc1ccc(C(=O)N2Cc3ccccc3CCc3ccccc32)cn1` [Example 45] displayed an inhibition at 10 µM of 34%. For the same compound, in the experiment with vasopressin V2, the Osmolality is given as 979 MOsm/kg and the “Urine Volume” value worked out at 6.6 ml/4 hrs. In experiment [2], this compound gave an inhibition at 1 µM of 54%.

One may read the IC50 as the concentration that inhibits the measured activity by half. A low value points to higher potency. In general, inhibition refers to the drop in the measured response relative to a control, in per cent. Read a high inhibition as a strong effect.
